These results are taken from patent US5698411A, “Method for determining activity of enzymes in metabolically active whole cells” (priority 1995, dated 1997).

Common to all, as to type: cell-based, human
The subject of experiment [1] is metabolically active whole cell. Kind of experiment: substrate panel in normals and HIV + patients, TB infection (Table 4). On the set-up: unit not given here. Here is the method:
A panel of assay compounds are assembled consisting of Ala-aminopeptidase and Lys-aminopeptidase, Dipeptidyl peptidase IV (Ala-Ala)2 rhodamine 110 and Cathepsin D to indicate possible TB infection in AIDS related cases.
A panel Of enzymatic substrates is performed consisting of Ala-aminopeptidase and Lys-aminopeptidase, Dipeptidyl peptidase IV (Ala-Ala)2 rhodamine 110 and Cathepsin D to indicate possible TB infection in AIDS related cases.

Experiment [2] deals with monocytes. Put plainly: aberrant enzyme activities in febrile children, monocytes (Table 7).
In experiment [3] the test system is granulocytes. Kind of experiment: peptidase activity in leukemia and non-leukemia patients, granulocytes (Table 6C). On the set-up: unit not given here. An excerpt: (§1) Artificial intelligence was used to analyze data of cellular enzyme functions, and determine normal and disease states. Peptidases were used to distinguish leukemia from non-leukemia (output pattern). For input patterns lymphocyte and granulocyte cell types were used with aminopeptidases, cathepsins and dipeptidylpeptidase enzyme activities. In this Example, illustrated in Tables 6A-6C, three normals and three leukemia patients were used as known output patterns for the neural network to learn (in practice, the larger the learning set the more accurate unknown prediction will be). Unknowns were then presented to the learned algorithm as shown in the test case examples. Clinical diagnosis was confirmed by physicians. The trained neural network was able to correctly classify the leukemia from the non-leukemia.

Experiment [4] deals with lymphocytes. Kind of experiment: aberrant enzyme activities in febrile children, lymphocytes (Table 7).
Experiment [5] deals with lymphocytes. Put plainly: peptidase activity in leukemia and non-leukemia patients, lymphocytes (Table 6C). On the set-up: unit not given here.
Text: as §1

In experiment [6] the test system is granulocytes. Kind of experiment: aberrant enzyme activities in febrile children, granulocytes (Table 7).

Where “and” joins values, the source holds several entries; their conditions need not be identical. Identical values can stand only once.

Consider `C[C@H](N)C(=O)NCC(=O)Nc1ccc2c(c1)Oc1cc(NC(=O)CNC(=O)[C@H](C)N)ccc1C21OC(=O)c2ccccc21` [ALA--GLY****], for which the “MEAN DELTA FL” value in experiment [1] (HIV + PATIENTS) is 39.9 and 29.7; in experiment [1] (NORMALS) it was 48.0 and 31.6.
Turning to `NCC(=O)N1CCC[C@H]1C(=O)Nc1ccc2c(c1)Oc1cc(NC(=O)[C@@H]3CCCN3C(=O)CN)ccc1C21OC(=O)c2ccccc21` [GLY--PRO*], the “MEAN DELTA FL” value in experiment [1] (HIV + PATIENTS) is 21.4; in experiment [1] (HIV + PATIENTS, listed as GLY--PRO****), 18.4; in experiment [1] (NORMALS), 50.9; in experiment [1] (NORMALS, listed as GLY--PRO****), 46.7.
On to `C[C@@H](O)[C@H](N)C(=O)N1CCC[C@H]1C(=O)Nc1ccc2c(c1)Oc1cc(NC(=O)[C@@H]3CCCN3C(=O)[C@@H](N)[C@@H](C)O)ccc1C21OC(=O)c2ccccc21` [THR--PRO*], for which the “MEAN DELTA FL” value in experiment [1] (HIV + PATIENTS) was determined as 10.2; in experiment [1] (NORMALS) it was 17.3.
`O=C1OC2(c3ccc(NC(=O)[C@@H]4CCCN4)cc3Oc3cc(NC(=O)[C@@H]4CCCN4)ccc32)c2ccccc21` [PRO, (H-L-Pro)2 --Rho 110 .2TFA]: the “aberrant enzyme activity, MONOS” value in experiment [2] (P92 Adenitis), in experiment [2] (P97 Pyelonephritis) and in experiment [2] (P103 Viral Syndrome) was “.smallcircle” throughout. The “enzyme activity, Grans” value in experiment [3] (J19 11/27/91 C L L) worked out at 5.50; in experiment [3] (N195 normal), 4.70; in experiment [3] (P69 pancreatic CA) it was 5.70; in experiment [3] (P70 cirrhosis/hemobilia) it was 0.66. The “aberrant enzyme activity, LYMPHS” value in experiment [4] (P92 Adenitis), in experiment [4] (P97 Pyelonephritis) and in experiment [4] (P103 Viral Syndrome) was “.smallcircle” throughout. Moreover, the “enzyme activity, Lymphs” value in experiment [5] (J4 11/21/91 acute leuk.) amounted to 0.47; in experiment [5] (J4 12/2/91 A L), 0.29; in experiment [5] (J4 12/3/91 acute leuk.) it was 0.24; in experiment [5] (J5 11/27/91 A M L), 0.89; in experiment [5] (J19 11/27/91 C L L), 0.44; in experiment [5] (J22 12/2/91 A M L), 0.40. Further, the “enzyme activity, Lymphs” value in experiment [5] (J22 12/9/91 A M L) came to 0.44; in experiment [5] (N191 normal), 0.69; in experiment [5] (N193 normal) it was 0.95; in experiment [5] (N194 normal), 0.86; in experiment [5] (N195 normal), 0.88; in experiment [5] (N197 normal), 0.57. For the same molecule, the “enzyme activity, Lymphs” value in experiment [5] (N200 normal) is on record as 0.74; in experiment [5] (N201 normal) it was 1.10; in experiment [5] (N202 normal), 0.89; in experiment [5] (P68 tachycardia), 0.70; in experiment [5] (P69 pancreatic CA), 0.66; in experiment [5] (P70 cirrhosis/hemobilia), 0.56. For the same molecule, the “enzyme activity, Lymphs” value in experiment [5] (P71 ac. pyelonephritis) turned out to be 0.52. For the same molecule, the “MEAN DELTA FL” value in experiment [1] (HIV + PATIENTS) stood at 11.0; in experiment [1] (NORMALS) it was 11.4. Besides, the “aberrant enzyme activity, GRANS” value in experiment [6] (P92 Adenitis), in experiment [6] (P97 Pyelonephritis) and in experiment [6] (P103 Viral Syndrome) was “.smallcircle” in each case.
Regarding `CC(C)[C@H](N)C(=O)N[C@@H](CO)C(=O)Nc1ccc2c(c1)Oc1cc(NC(=O)[C@H](CO)NC(=O)[C@@H](N)C(C)C)ccc1C21OC(=O)c2ccccc21` [VS, (H-L-Val--Ser)2 Rho 110 .2TFA], the “aberrant enzyme activity, MONOS” value in experiment [2] (P96 Viral Syndrome) and in experiment [2] (P103 Viral Syndrome) was “.smallcircle” in each case. Further, the “enzyme activity, Grans” value is recorded as 0.37 in experiment [3] (J4 11/21/91 acute leuk.); 0.14 in experiment [3] (J4 12/2/91 A L); 0.23 in experiment [3] (J4 12/3/91 acute leuk.); 0.22 in experiment [3] (J22 12/2/91 A M L); 0.32 in experiment [3] (J22 12/9/91 A M L); 0.64 in experiment [3] (N191 normal). In addition, the “enzyme activity, Grans” value in experiment [3] (N192 normal) turned out to be 0.40; in experiment [3] (N193 normal), 0.44; in experiment [3] (N194 normal) it was 0.29; in experiment [3] (N195 normal), 0.37; in experiment [3] (N197 normal), 0.58; in experiment [3] (N199 normal), 0.14. The “enzyme activity, Grans” value turned out to be 0.24 in experiment [3] (N200 normal); 0.32 in experiment [3] (N201 normal); 0.24 in experiment [3] (N202 normal); 0.33 in experiment [3] (P68 tachycardia); 0.57 in experiment [3] (P69 pancreatic CA); 0.26 in experiment [3] (P70 cirrhosis/hemobilia). Further, the “enzyme activity, Grans” value in experiment [3] (P71 ac. pyelonephritis) is on record as 0.69. Further, the “aberrant enzyme activity, LYMPHS” value in experiment [4] (P95 Viral Syndrome), in experiment [4] (P96 Viral Syndrome), in experiment [4] (P97 Pyelonephritis) and in experiment [4] (P103 Viral Syndrome) was “.smallcircle” in each case. The “enzyme activity, Lymphs” value in experiment [5] (J4 11/21/91 acute leuk.) amounted to 0.05; in experiment [5] (J4 12/2/91 A L), 0.03; in experiment [5] (J4 12/3/91 acute leuk.), 0.04; in experiment [5] (J5 11/27/91 A M L) it was 0.05; in experiment [5] (J19 11/27/91 C L L), 0.01; in experiment [5] (J22 12/2/91 A M L), 0.01. The “enzyme activity, Lymphs” value in experiment [5] (J22 12/9/91 A M L) is given as 0.04; in experiment [5] (N191 normal) it was 0.14; in experiment [5] (N192 normal) it was 0.08; in experiment [5] (N193 normal), 0.09; in experiment [5] (N194 normal), 0.07; in experiment [5] (N195 normal) it was 0.06. The “enzyme activity, Lymphs” value in experiment [5] (N197 normal) worked out at 0.11; in experiment [5] (N199 normal) it was 0.03; in experiment [5] (N200 normal), 0.06; in experiment [5] (N201 normal) it was 0.07; in experiment [5] (N202 normal), 0.04; in experiment [5] (N206 normal), 0.28. Besides, the “enzyme activity, Lymphs” value was 0.05 in experiment [5] (P68 tachycardia), 0.18 in experiment [5] (P69 pancreatic CA), 0.04 in experiment [5] (P70 cirrhosis/hemobilia) and 0.08 in experiment [5] (P71 ac. pyelonephritis). Further, the “MEAN DELTA FL” value in experiment [1] (HIV + PATIENTS) amounted to 32.5; in experiment [1] (NORMALS), 24.6. Further, the “aberrant enzyme activity, GRANS” value in experiment [6] (P96 Viral Syndrome), in experiment [6] (P97 Pyelonephritis) and in experiment [6] (P103 Viral Syndrome) was “.smallcircle” in each case.
In the case of `CC(C)C[C@H](NC(=O)CN)C(=O)Nc1ccc2c(c1)Oc1cc(NC(=O)[C@H](CC(C)C)NC(=O)CN)ccc1C21OC(=O)c2ccccc21` [GL, (H Gly--Leu)2 Rho 110 .2FTA], the “aberrant enzyme activity, MONOS” value in experiment [2] (P92 Adenitis), in experiment [2] (P97 Pyelonephritis) and in experiment [2] (P103 Viral Syndrome) was “.smallcircle” each time. The “aberrant enzyme activity, LYMPHS” value in experiment [4] (P92 Adenitis), in experiment [4] (P97 Pyelonephritis) and in experiment [4] (P103 Viral Syndrome) was “.smallcircle” each time. Further, the figures for the “MEAN DELTA FL” value in experiment [1] (HIV + PATIENTS) and in experiment [1] (NORMALS) were 16.3 and 9.5, respectively. Further, the “aberrant enzyme activity, GRANS” value in experiment [6] (P92 Adenitis) and in experiment [6] (P103 Viral Syndrome) was “.smallcircle” in each case.
For `NC(=O)CC[C@H](N)C(=O)N[C@@H](CO)C(=O)Nc1ccc2c(c1)Oc1cc(NC(=O)[C@H](CO)NC(=O)[C@@H](N)CCC(N)=O)ccc1C21OC(=O)c2ccccc21` (relative stereo) [GLN--SER*], the “MEAN DELTA FL” value in experiment [1] (HIV + PATIENTS) was 13.7 and 12.7; in experiment [1] (NORMALS), 11.9 and 6.1.
